# Earlier results as cited in paper PMC12060149 (RSC Advances, 2025).
# Assays:
# [1] = biological target: ACE2 (Homo sapiens, UniProt Q9BYF1)
# [2] = system: breast cancer tumor; settings: mice
# [3] = system: MCF-7
# Chain of ACE2 (Q9BYF1 18-805): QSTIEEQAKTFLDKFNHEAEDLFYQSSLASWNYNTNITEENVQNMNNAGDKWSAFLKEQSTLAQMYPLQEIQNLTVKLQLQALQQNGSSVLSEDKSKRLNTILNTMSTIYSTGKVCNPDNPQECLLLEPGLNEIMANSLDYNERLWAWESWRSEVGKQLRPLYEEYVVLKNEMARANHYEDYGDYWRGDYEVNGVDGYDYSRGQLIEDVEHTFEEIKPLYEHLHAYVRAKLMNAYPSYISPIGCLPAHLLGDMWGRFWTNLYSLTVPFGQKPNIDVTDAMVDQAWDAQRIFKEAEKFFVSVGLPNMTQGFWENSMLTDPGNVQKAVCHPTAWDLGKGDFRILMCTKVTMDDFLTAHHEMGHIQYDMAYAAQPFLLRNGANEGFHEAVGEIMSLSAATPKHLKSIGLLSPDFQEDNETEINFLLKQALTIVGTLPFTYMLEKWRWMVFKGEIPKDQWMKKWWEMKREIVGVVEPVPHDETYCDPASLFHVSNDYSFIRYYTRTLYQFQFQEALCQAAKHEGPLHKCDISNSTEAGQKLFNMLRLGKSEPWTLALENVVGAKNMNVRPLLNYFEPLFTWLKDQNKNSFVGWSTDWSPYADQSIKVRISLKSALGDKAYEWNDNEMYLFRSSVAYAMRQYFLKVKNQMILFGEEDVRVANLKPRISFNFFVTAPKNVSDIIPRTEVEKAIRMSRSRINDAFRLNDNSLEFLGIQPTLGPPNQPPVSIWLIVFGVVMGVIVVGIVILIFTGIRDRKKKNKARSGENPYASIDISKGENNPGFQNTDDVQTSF
compound,measurement,setting,value
"NCCC(=O)N[C@@H](Cc1cnc[nH]1)C(=O)O [carnosine, Carnosine]",concentration range of mild ACE2 inhibition,[1],100 to 300 mM
same,breast cancer tumor size,[2],reduces the breast cancer tumor size
same,MCF-7 proliferation,[3]; carnosine in the 100–300 mM range,increased but non-significantly
same,IC50,"[3]; read-out: IC50 of antiproliferative effect, two other research groups",~68 mM
